Where two headings read alike, the source gives them in different places.
Columns and labels:
porcine RBCs = assay: Nonspecific binding of Lu-BSA to porcine RBCs (base-activated chemiluminescence); format: cell-based, pig; details: for activation at 1490 µM / inhibition at 1490 µM: Sus scrofa; for activation at 1490 µM: read-out: Percent difference from control
Method: Blood was collected from Landrace-Duroc swine from a closed herd. Pigs from this herd had previously expressed episodes of porcine stress syndrome (malignant hyperthermia) following halothane anesthesia. The blood was collected into acidic citrated dextrose solution in standard blood bags. The blood was diluted 1:10 in phosphate (0.1M) buffered saline (PBS), pH 7.4, in 10 ml aliquots, centrifuged in a clinical centrifuge, and the erythrocytes were resuspended in fresh PBS. The cells were stored at 4° C. until used in the various assays. The post-collection chronological age of the RBCs used for a particular assay is noted in the results for each assay. The cells were counted in an automated cell counter (Coulter ZBI, Coulter Electronics, Inc., Hialeah, Fla. 33010). Nonspecific binding of Lu-BSA to porcine RBCs was measured following treatment with hydrogen peroxide, pyruvate, and/or 3-amino-L-tyrosine at 4°, 37°, or 45° C. The exposure times for those agents were 15 min, 30 min, or 72 hours. The reagents were removed by centrifugation. Three binding protocols were followed: (1) 0.25 ml of 1:20 RBCs (19 days post collection) were incubated with 0.25 ml of 1 mg/ml Lu-BSA in PBS, pH 6.9, for 30 min at 37° C. and washed (Table 1); (2) 0.05 ml of packed RBCs (less than 24 hours post collection) were resuspended in 0.2 ml of the Lu-BSA solution and incubated overnight at 4° C. […] The cells in all three protocols were washed once in PBS, pH 7.4, and resuspended in PBS to final dilutions of 1:20 for (1) and 1:30 for (2) and (3). Following this preparation, 100 μl of each cell suspension were added to 500 μl of PBS, pH 7.4, in a scintillation vial. The vial was placed in the photometer and the solution was activated by the addition of 100 μl 0.1N NaOH. The settings for the photometer were as previously described for the Con A-Lu-BSA.

[1] = tested on: T cell (spleen) peroxidase; assay: Inhibition of T cell (spleen) peroxidase activity; format: biochemical
[2] = tested on: human KBE epidermoid carcinoma cells; assay: Survival after gamma irradiation by colony formation; format: cell-based; details: for radioprotection, in words: low dose
Method: In those experiments performed with media containing phenol red, this medium was replaced (in
each flask) with 10 ml of fresh medium; the flasks were then reincubated at 37° C. for 1 hour. After this time, under yellow light, 0.05 ml aliquots of distilled water or solutions of 3-aminotyrosine were injected to give 1:200 dilutions. […] Flasks were irradiated at 0, 250, 500, or 1000 rads at room temperature as previously described. Efforts were made to keep light exposure to a minimum. For those flasks irradiated for 8 min (10 Gy), the temperature in the flasks would decrease during that interval to 30° C.
Immediately after the irradiations were complete, the attached cells were washed two times with Saline A salt solution, the trypsinized using standard procedures with 1.5 ml of trypsin-EDTA (GIBCO 610-5300). The cells were declumped after inactivation of the trypsin with fresh medium, and the cell density determined by Coulter counter. Cell dilutions of appropriate densities were made with fresh medium in sterile plastic conical centrifuge tubes, and 5 ml aliquots were seeded at two different dilutions for each treatment flask into fresh T-25 flasks (4 replicate flasks at each cell dilution). The flasks were all incubated for 7 days, at which time the old medium was aspirated and the cells were fixed in situ with 100% methanol. The colonies were then stained with 0.3% methylene blue, and rinsed with distilled water. After air drying, colonies greater than 1 mm in diameter were scored as viable colonies. The cloning efficiency in each flask was determined as described for the L5178Y cells above.
In one experiment, treatment with 3-aminotyrosine was performed using custom formulated Earle's BME medium without phenol red (GIBCO 85-0078). Prior to addition of 3-aminotyrosine, cells were washed free of the standard growth medium using Saline A without phenol red.

Novikoff hepatoma = assay: Enhancement of tumor growth by aminotyrosine after dilute hepatoma cell challenge; format: in vivo, rat; details: 1 mg i.p. daily for five days; ninth day following inoculation; four adult male rats; controls no tumor
Method: In order to evaluate whether or not endogenous peroxidases play a role in the natural resistance to neoplastic growth, we injected some rats with a potent inhibitor of the cytotoxic activity of peroxidases and subsequently challanged the animals with a suspension of hepatoma cells.
Four adult male rats were injected i.p. with 1 mg of 3-aminotyrosine in 1 ml of water. Four control rats were injected with 1 ml of water. The following day all rats were injected with 1 ml of a dilute Novikoff hepatoma cell suspension; the number of cells being normally insufficient to produce tumor growth. On the same day, an additional 1 mg aminotyrosine was administered to the rats that received the inhibitor the previous day and this was repeated for three more days. The four control rats similarly received water injections.
On the ninth day following the inoculation with tumor, all rats were sacrificed and examined for the presence of tumor. No tumor was present in any of the control animals.

[3] = 1.49 mM preincubation and pyruvate 1.33 mM

Nc1cc(C[C@H](N)C(=O)O)ccc1O [3-aminotyrosine, 3-amino-L-tyrosine]
CL (counts/30 s) (porcine RBCs; [3]): 964 ± 230 counts/30 s
Percent difference from control (porcine RBCs; [3]): 9%
Lu-BSA binding above the 37° C. control (porcine RBCs; 1.49 mM with hydrogen peroxide 11.7 mM, 37° C.): ≤ 14%
CL (30 s) (porcine RBCs; 1.49 mM with hydrogen peroxide 11.7 mM, 37° C., 30 min): 663 ± 145 counts/30 s
Percent difference from control (porcine RBCs; 1.49 mM with hydrogen peroxide 11.7 mM, 37° C., 30 min, vs 4° C. control): 74%
CL (30 s) (porcine RBCs; 1.49 mM, 45° C., 30 min): 550 ± 126 counts/30 s
CL (counts/30 s) (porcine RBCs; 1.49 mM, preincubated at 4° C. for 72 h, RBCs 72 hours post collection): 794 ± 156 counts/30 s
activation at 1490 µM (porcine RBCs; 0.5 h, 1.49 mM, 45° C., 30 min, vs 4° C. control): 45%
activation at 1490 µM (porcine RBCs; 72 h, 1.49 mM, preincubated at 4° C. for 72 h): -10%
inhibition at 1490 µM (porcine RBCs; 1.49 mM, hydrogen peroxide 11.7 mM, 37° C., read-out: inhibition of Lu-BSA binding induced by hydrogen peroxide): 51%
inhibition at 1490 µM (porcine RBCs; RBCs stored at 4° C. in 1.49 mM for 72 hours, read-out: less Lu-BSA bound than RBCs stored in PBS): 10%
protection from the effects of pyruvate (Lu-BSA binding), in words (porcine RBCs; cells preincubated in 1.49 mM, then pyruvate 1.33 mM): protected them from the effects of pyruvate
effect on T cell (spleen) peroxidase activity, in words [1]: inhibit
Ratio of Percent Survival, 3-Aminotyrosine/Control ([2]; Twenty-Four Hour Incubation (No Phenol Red), 250 rads, 2 micromoles/ml): 1.08
Ratio of Percent Survival, 3-Aminotyrosine/Control ([2]; Twenty-Four Hour Incubation (No Phenol Red), 250 rads, 100 nanomoles/ml): 0.79
Ratio of Percent Survival, 3-Aminotyrosine/Control ([2]; Twenty-Four Hour Incubation (No Phenol Red), 500 rads, 2 micromoles/ml): 1.49
Ratio of Percent Survival, 3-Aminotyrosine/Control ([2]; Twenty-Four Hour Incubation (No Phenol Red), 500 rads, 100 nanomoles/ml): 0.48
Ratio of Percent Survival, 3-Aminotyrosine/Control ([2]; Twenty-Four Hour Incubation (No Phenol Red), 1000 rads, 2 micromoles/ml): 2.61
Ratio of Percent Survival, 3-Aminotyrosine/Control ([2]; Twenty-Four Hour Incubation (No Phenol Red), 1000 rads, 100 nanomoles/ml): 2.32
Ratio of Percent Survival, 3-Aminotyrosine/Control ([2]; Twenty-Four Hour Incubation (Phenol Red Present), 250 rads, 2 micromoles/ml): 1.28
Ratio of Percent Survival, 3-Aminotyrosine/Control ([2]; Twenty-Four Hour Incubation (Phenol Red Present), 250 rads, 100 nanomoles/ml): 1.53
Ratio of Percent Survival, 3-Aminotyrosine/Control ([2]; Twenty-Four Hour Incubation (Phenol Red Present), 500 rads, 2 micromoles/ml): 2.91
Ratio of Percent Survival, 3-Aminotyrosine/Control ([2]; Twenty-Four Hour Incubation (Phenol Red Present), 500 rads, 100 nanomoles/ml): 1.36
Ratio of Percent Survival, 3-Aminotyrosine/Control ([2]; Twenty-Four Hour Incubation (Phenol Red Present), 1000 rads, 2 micromoles/ml): 4.65
Ratio of Percent Survival, 3-Aminotyrosine/Control ([2]; Twenty-Four Hour Incubation (Phenol Red Present), 1000 rads, 100 nanomoles/ml): 1.63
Ratio of Percent Survival, 3-Aminotyrosine/Control ([2]; Zero hour incubation, 250 rads, 2 micromoles/ml): 1.70
Ratio of Percent Survival, 3-Aminotyrosine/Control ([2]; Zero hour incubation, 250 rads, 100 nanomoles/ml): 0.94
Ratio of Percent Survival, 3-Aminotyrosine/Control ([2]; Zero hour incubation, 500 rads, 2 micromoles/ml): 1.25
Ratio of Percent Survival, 3-Aminotyrosine/Control ([2]; Zero hour incubation, 500 rads, 100 nanomoles/ml): 0.81
Ratio of Percent Survival, 3-Aminotyrosine/Control ([2]; Zero hour incubation, 1000 rads, 2 micromoles/ml): 2.26
Ratio of Percent Survival, 3-Aminotyrosine/Control ([2]; Zero hour incubation, 1000 rads, 100 nanomoles/ml): 0.99
effect on survival after irradiation, in words ([2]; high concentration, added 24 hours prior to exposure, medium containing phenol red): radioprotective effect
radioprotection, in words ([2]; 10 minute preincubations (0 hours)): no radioprotection
radioprotection, in words ([2]; pre-incubation for 24 hours): low-dose radioprotection
presence of tumor, in words (Novikoff hepatoma): had developed tumor growth

— US4870002A, “Method of prevention of oxidative injury to cells” (priority 1985, dated 1989)
